Read-outs that look alike come from different tables or passages of the source.
Columns and labels:
[1] = system: Streptozotocin (STZ) induced diabetic rats
Experimental: (§1) The induction of diabetes was confirmed 72 h after streptozotocin injection by measurement of blood glucose levels using Contour® blood glucose diagnostic kit (Bayer HealthCare, Canada). Body weight and blood glucose levels were measured before and 3 days after streptozotocin injection, once a week for three weeks after diabetes induction. Only rats having blood glucose concentration consistently higher than 300 mg/dl were used for the present study.
(§2) Appropriate concentration for each dose was adjusted accordingly.
Animals were placed in Plexiglas boxes on an elevated metal mesh floor and allowed 60 min for habituation before testing. […] Withdrawal thresholds of both paws were averaged as one single value per animal.
(§3) Assessment on the effects of RAP103 on mechanical and cold allodynia was performed between 2-4 hours following the drug administration.
(§4) All data were presented as means±SEM. Statistical analysis was performed by two-way ANOVA followed by Bonferroni post-tests. The criterion for statistical significance was P<0.05.

[2] = system: cytokines, IL1β, TNFα; chemokines CCL2, CCL3; and chemokines receptors CCR2 and CCR5; conditions: 0.5 mg/kg, for 7 days, p.o., FIGS. 3A-F
Experimental: To test the hypothesis, we first used behavioral and molecular/cellular approaches to explore chronic pain development and inflammatory reaction in Streptozotocin (STZ) induced diabetic rats. […] CCL2 and CCL3 are two chemokines well known in mediating immune cell trafficking and immune response in the context of neuropathic pain.
as §1

[3] = system: Streptozotocin (STZ) induced diabetic rats; conditions: oral gavage daily, FIGS. 2A-B
Experimental: as §1, §2
Cumulative scores were then obtained by summing the four scores for each rat, the minimum score being 0 (no response to any of the four trials) and the maximum possible score being 12 (repeated flicking and licking of paws on each of the four trials).
as §3, §4

[4] = system: Male, Sprague-Dawley rats; conditions: for morphine analgesia in an animal model of post-surgical pain (reversal of mechanical allodynia): RAP-103 0.5 mg/kg i.p. plus morphine 5.0 mg/kg s.c. vs morphine alone, 25 min post-surgery, FIG. 4

all-D-TTNYT [RAP-103]
established hypersensitivity in STZ rats ([1]; 0.5.-0.02 mg/Kg b.w., daily, for 7 days, mechanical and cold allodynia): complete reversal of established hypersensitivity | mechanical allodynia in rats with neuropathic pain ([1]; STZ diabetic rats, oral gavage daily, FIGS. 1A-B): reversed mechanical allodynia | inflammation in the sciatic nerves of STZ rats (inflammatory mediators) [2]: reducing significantly all examined inflammatory mediators | inflammation in the sciatic nerves of STZ rats (inflammatory mediators) ([2]; listed as RAP103): significantly inhibited inflammation | cold allodynia in rats with neuropathic pain [3]: reversed cold allodynia | morphine analgesia in an animal model of post-surgical pain (reversal of mechanical allodynia) [4]: statistically significantly greater analgesia | morphine analgesia in an animal model of post-surgical pain (reversal of mechanical allodynia) ([4]; listed as RAP103): potentiates morphine analgesia | shift to the left of the ED50 for morphine by addition of RAP-103 ([4]; RAP-103 0.5 mg/kg plus morphine 0.5 to 5.0 mg/kg, % reversal of mechanical allodynia at t=60 min, FIG. 5): about 2 fold

— patent USRE50563E1, “Use of an all-D-pentapeptide chemokine antagonist to reduce opioid dose in a person with pain” (Creative Bio-Peptides, Inc., priority 2017, dated 2025)
